How the values were obtained:
SesnTKO HEK293T cells = assay: mTORC1 activation (p70S6K1) in HEK293T cells null for all three Sestrin isoforms; assay type: cell-based; conditions: leucine-starved 50 minutes, treatment 10 minutes
Protocol: All cell lines were cultured in DMEM (Corning, #MT10013CV) supplemented with 10% heat-inactivated FBS (Gibco, #16140–071). All cell lines were maintained at 37°C and 5% CO2. For amino acid starvation, cells were rinsed once with and incubated Amino acid-free RPMI (US Biologicals, #R8999-04A) supplemented with 10% dialyzed FBS (Gibco, #26400044) for 50 min followed by treatment with NV-5297, leucine, or vehicle for 10 minutes. For leucine starvation, cells were rinsed once with and incubated in leucine-free DMEM (AthenaES, #0420) supplemented with 10% dialyzed FBS (Gibco, #26400044) for 50 minuted followed by treatment with NV-5297, leucine, or vehicle for 10 minutes.
To ascertain if Sestrins and the GATOR pathway are required for NV-5297 activity, we tested mTORC1 activation in cells null for either all three Sestrin isoforms [SesnTKO] or for the GATOR1 component Npr13 [Npr13KO] [44]. […]
(A) Activation of the mTORC1 pathway by NV-5297. […] Representative immunoblots of ^T389pS6K1 and quantification of the normalized level of ^T389pS6K1 from 8 independent experiments (F) show TORC1 activity in unedited HEK-293T cells, HEK-293T cells deficient for Sestrin 1 (Sesn1), 2 (Sesn2) and 3 (Sesn3) (D) or HEK-293T cells deficient for the GATOR1 component Nprl3 (E) after 50 minutes leucine starvation followed by the addition of vehicle, NV-5297 or leucine for 10 minutes. […]

mTORC1 pathway (pS6) = assay: pS6 immunoblot of striatum and heart after one week of oral dosing in N171-82Q HD mice; assay type: in vivo; conditions: N171-82Q mice, oral 160 mg/kg daily for one week
Protocol: The initial trial consisted in one week of oral dosing in 12 weeks old N171-82Q males. The chronic 6 weeks treatment (Veh n = 15, NV-5297 n = 14) took place from 6 to 12 weeks of age. The cardiac stress took place in animals from 10 to 12 weeks of age (Veh-Sal n = 9, NV-Sal n = 10, Veh-Iso n = 16, NV-Iso n = 11).
(§1) Specific regions of the brain and heart were homogenized using a Next Advance Bullet Blender Storm in Lysis Buffer (Cell lysis buffer: 1% Triton X-100, 50 mM HEPES pH 7.4, 100 mM sodium chloride, 2 mM EDTA, 10 mM Beta-glycerophosphate, 10 mM Sodium pyrophosphate, and 1 protease inhibitor) at 4°C. Lysates were cleared by centrifugation at 13,200 rpm at 4°C for 10 minutes. Equal amounts of total protein from each sample were denatured and, resolved by SDS-PAGE. Membranes were imaged using the LI-COR imaging system. Proteins levels are normalized to tubulin, actin or GAPDH levels and further normalized to vehicle treated mice for each tissue.
Supplementary file pone.0273710.s002.tiff: S2 Fig Activation of the mTORC1 pathway in mice striatum and heart after oral dosing with NV-5297. (A) Representative immunoblot for the phosphorylated (^S240/244pS6), S6 and actin or tubulin in the striatum and heart of N171-82Q wild-type (WT) mice or N171-82Q HD mice respectively collected 1 hour after the last dose of a week of oral dosing with vehicle (Veh) or NV-5297 (160 mg/kg; A). Quantification of levels of ^S240/244pS6 in the striatum (B) and the heart (C) normalized to loading control levels and further normalized to untreated WT mice. Data are presented as mean ± SEM. **P ≤ 0.01, ***P ≤ 0.001 and ****P ≤ 0.0001 (Kruskal-Wallis test with Dunn’s multiple comparison tests). (TIFF) Click here for additional data file.

[1] = system: mTORC1 pathway in striatum; assay: Chronic 6-week treatment: striatum immunoblots; assay type: in vivo, N171-82Q mice
Text: Animals were sacrificed by live decapitation one hour after the last oral dosing. Whole hearts were excised, blot-dried and weighed on an analytical balance. The heart was bisected transversely and the apical halves was preserved for cardiomyocyte and fibrosis staining. Left tibias were isolated and measured with an electronic caliper. The brain left hemisphere was preserved for MSN size measurement. The brain right hemisphere was microdissected and the medial pre-frontal cortex, striatum, cortex, hippocampus and cerebellum were collected.
as §1
Fig 3 Activation of the mTORC1 pathway in the striatum following daily oral dosing of NV-5297. (A) Representative immunoblots of the striatum for normalized phosphorylated S6 [^S240/244pS6], S6, phosphorylated Akt [^S437pAkt], Akt, phosphorylated mTOR [^S2448pmTOR], mTOR, DARPP-32, phosphorylated 4E-BP1 [^Thr37/46p4E-BP1], 4E-BP1 and Actin from homogenized striatum isolated from N171-82Q males after 6 weeks of daily oral dosing of NV-5297 (160 mg/kg) or vehicle [Veh]. (B) Quantification of the immunoblots from homogenized striatum isolated 1 hour after the final oral dosing with NV-5297 (160 mg/kg; n = 14) normalized to loading control levels and further normalized to vehicle treated mice (n = 15). A significant Spearman correlation is present between pS6/S6 and DARPP32 levels. Data are presented as mean ± SEM. *P ≤ 0.05, ***P ≤ 0.001, ****P ≤ 0.0001 (one-tailed unpaired Student’s t-test [pmTOR/mTOR, DARPP-32], with a Welch’s correction [pS6/S6, p4E-BP1/4E-BP1], Mann-Whitney test [pAkt/Akt].

[2] = N171-82Q mice, 160 mg/kg daily 6 weeks
[3] = N171-82Q mice, 160 mg/kg daily 6 weeks, 1 hour after final dose

Structure (SMILES): CC(C)(C[C@H](N)C(=O)O)C(F)(F)F [NV-5297, (S)-2-amino-5,5,5-trifluoro-4,4-dimethylpentanoic acid]
- p70S6K1 levels (SesnTKO HEK293T cells): remained unchanged
- pS6 in heart relative to vehicle (mTORC1 pathway (pS6)): increased
- pS6 in striata relative to vehicle (mTORC1 pathway (pS6)): increased
- ratio of pS6 level in striatum and heart compared with age-matched WT mice (mTORC1 pathway (pS6)): normalized
- striatal p4E-BP1/4E-BP1 [1, 2]: unchanged
- striatal pAkt/Akt [1, 2]: unchanged
- striatal pmTOR/mTOR [1, 2]: unchanged
- striatal DARPP-32 [1, 3]: significantly elevated
- striatal pS6 [1, 3]: significantly elevated
- duration of mTORC1 pathway activation ([1]; NV-5297 daily treatment, response to reviewers): ~ 3 hours per day

Source: PMC9423655, “Huntington’s disease phenotypes are improved via mTORC1 modulation by small molecule therapy” (PLoS ONE, 2022)
